Article PMC6934184, “Selective DNA-PKcs inhibition extends the therapeutic index of localized radiotherapy and chemotherapy” (The Journal of Clinical Investigation, 2019)

Target: T1, PRKCN (PKD3) (Homo sapiens, UniProt O94806)
T1 construct: purchased Thermo Fisher Scientific (Life Technologies) SelectScreen
Test: SelectScreen Z'LYTE
Assay type: biochemical
Outline: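 SelectScreen broad panel; activity (Z'LYTE, Adapta) plus binding formats. ATP: Km app for CSF1R Z'LYTE; 10 for CAMK1 Adapta. Readout = % per kinase.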

T1 sequence (O94806 whole entry): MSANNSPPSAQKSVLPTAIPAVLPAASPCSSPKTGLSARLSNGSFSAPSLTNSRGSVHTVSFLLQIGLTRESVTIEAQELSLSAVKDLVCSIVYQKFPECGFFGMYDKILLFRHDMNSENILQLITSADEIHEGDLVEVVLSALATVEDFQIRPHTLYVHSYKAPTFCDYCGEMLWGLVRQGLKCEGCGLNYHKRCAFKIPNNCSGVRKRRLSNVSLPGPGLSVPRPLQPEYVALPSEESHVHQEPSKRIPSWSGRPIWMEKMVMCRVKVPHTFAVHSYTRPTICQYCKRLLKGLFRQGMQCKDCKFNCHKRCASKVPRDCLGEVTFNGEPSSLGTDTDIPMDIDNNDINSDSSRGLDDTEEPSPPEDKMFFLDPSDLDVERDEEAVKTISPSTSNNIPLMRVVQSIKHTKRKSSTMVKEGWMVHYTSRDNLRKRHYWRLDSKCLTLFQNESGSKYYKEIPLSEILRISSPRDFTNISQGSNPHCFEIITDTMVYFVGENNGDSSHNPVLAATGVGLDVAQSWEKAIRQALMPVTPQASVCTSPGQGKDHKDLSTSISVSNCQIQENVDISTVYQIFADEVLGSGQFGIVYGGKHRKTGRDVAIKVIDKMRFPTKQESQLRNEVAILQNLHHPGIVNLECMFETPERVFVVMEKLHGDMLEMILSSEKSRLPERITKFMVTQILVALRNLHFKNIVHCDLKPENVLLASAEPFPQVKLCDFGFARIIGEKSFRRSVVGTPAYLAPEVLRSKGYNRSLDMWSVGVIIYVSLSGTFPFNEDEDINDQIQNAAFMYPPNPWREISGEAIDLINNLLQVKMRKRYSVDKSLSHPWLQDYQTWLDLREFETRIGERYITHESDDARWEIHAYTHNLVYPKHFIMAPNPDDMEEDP

Q: How did the inhibition at 1 µM turn out when CN(C(=O)CN1CCOCC1)c1ccc2sc3c(-c4cccc5c(=O)cc(N6CC7CCC(C6)O7)oc45)cccc3c2c1 [NU5455] was run?
A: 10.7%
